Assay results: patent publication US20040214839A1, “Therapeutic methods” (priority 2001, published 2004)

Experiments:
[1] = system: phosphodiesterase IV-b mRNA; experiment: Phosphodiesterase IV b mRNA in U937 cells (Taqman); format: cell-based, human; details: four hours of incubation; PGE 1×10^-6, 19-hydroxy PGE2 5×10^-6; without inhibitor
Experimental: After the incubation (20 hours), cells were pelleted and the mRNA was extracted with Tri-reagent (Sigma, Poole, UK). Total RNA was obtained by addition of chloroform and subsequent isopropanol precipitation. RNA was reverse transcribed with reverse transcriptase (Applied Biosystems) and random hexamers (Applied Biosystems). Probes and primers for IL-10 and IL-12 (p35) were designed using Primer Express (Applied Biosystems) and were as follows:
Template was amplified in a Taqman 7700 machine for 40 cycles using FAM/TAMRA dyes on the probe. The Applied Biosystems kit was used to amplify and detect ribosomal (18S)RNA (using VIC/TAMRA dyes) as an internal control in the same reaction tube. After 40 cycles the Ct (related to cycle number at which signal appears) for the FAM and the 18S (VIC) were recorded and […] relative quantitation was achieved using the formula 2^−ΔΔct where Δ refers to the difference between the FAM and VIC signal related to an standard comparator included in each run.
The mRNA for phosphodiesterase IV-b was measured as described in Example 2 above mRNA was extracted after four hours of incubation. The concentration of the PGE was 1×10^−6 and that of the 19-hydroxy PGE2 was 5×10^−6. The following primers and Taqman probe were used for quantitation of PDE IV b mRNA.

[2] = system: IL-10 release from U937 cells; experiment: IL-10 release from U937 cells (ELISA); format: cell-based, human; details: for stimulation of IL-10 in the presence of a type IV selective PDE inhibitor: with vs without type IV selective PDE inhibitor (rolipram)
Experimental: U 937 cells were grown in RPMI (PAA Laboratories) medium with 10% fetal calf serum added (PAA Laboratories). 2×10^6 cells per flask were treated with prostaglandin E2 at 10^−6 Molar or with Rolipram (4×10^−6) for 24 hours. Medium was removed at […] and analysed by ELISA. A capture antibody (Pharmingen) was coated onto 96 well plates and culture medium was added each well. A standard curve was created with recombinant IL-10 protein. After incubation and washing, a biotin labelled monoclonal antibody (Pharmingen) was added and following incubation and washing, peroxidase labelled streptavidin was added. After washing a tetramethyl benzidine substrate was added and colour developed in proportion to IL-10 in the original sample/standard. Colour was read using a plate photometer (Labsystems, Multiskan). Mean concentrations (N=3) in controls with no lipopolysaccharide (LPS) were 38.2 pg/ml and in the presence of LPS (100 nM) they were 43.9 […].
The effect of PGE1, PGE2, 19 hydroxy PGE1 and 19 hydroxy PGE2 on the stimulation of IL-10 in the presence and absence of rolipram was investigated as described above in Example 2. IL-10 levels were measured using an ELISA assay (R&D Ltd, Oxford). Measurements were taken in accordance with the manufacturer's instructions.

[3] = in vivo; cited from earlier work
[4] = system: type IV PDE; details: cited from earlier work; for IC50: type IV PDE inhibitor

| Compound | PDE activity (phosphodiesterase IV b mRNA) after prostaglandin application [1] | stimulation of IL-10 in the presence of a type IV selective PDE inhibitor [2] | IC50 [4] [nM] | further results |
| --- | --- | --- | --- | --- |
| 19-hydroxy PGE2 | increase | increased strikingly | – | concentration necessary to achieve similar effects to PGE ([2]; compared with PGE, Figures and Examples): higher concentration |
| CCCCC(C)(O)CC=C[C@H]1[C@H](O)CC(=O)[C@@H]1CCCCCCC(=O)OC (mixture of isomers) [misoprostol, (±) methyl 11α, 16-dihydroxy-16-methyl-9-oxoprost-13-enoate] | – | – | – | hypotension [3]: does not cause hypotension |
| CCCCC[C@H](O)/C=C/[C@H]1[C@H](O)CC(=O)[C@@H]1C/C=C\CCCC(=O)O [PGE, prostaglandin E2] | increase | increased strikingly | – | – |
| CCCCOc1cc(CC2CNC(=O)N2)ccc1OC (stereo not drawn) [Ro-20-1724, 4-[3-butoxy-4-methoxybenzyl]-2-imidazolidinone] | – | – | 2000 | – |
| COc1ccc(C2CNC(=O)C2)cc1OC1CCCC1 (stereo not drawn) [rolipram, 4-[3-cyclopentyloxy 4-methoxyphenyl]-2-pyrrolidinone] | – | – | 800 | – |
| Cn1c(=O)c2[nH]cnc2n(C)c1=O [theophylline] | – | – | – | times less effective than rolipram ([4]; non-selective inhibitor compared with rolipram): 30 times |
